Measurements published in patent EP1463487B1, “LIPOSOMAL DELIVERY OF VITAMIN E BASED COMPOUNDS” (RESEARCH DEVELOPMENT FOUNDATION, priority 2001, dated 2003).
“Also recorded” adds a separate entry of the source.

What was measured:
[1] = system: 66 cl.4-GFP tumors; assay: TUNEL assay for apoptosis in tumor sections in vivo; set-up: species or system Balb/c mice
Description: Deparaffinized sections (5 µm) of tumor tissue were used to assess apoptosis using reagents supplied in the ApopTag In Situ Apoptosis Detection kit (Intergen, Purchase, NY) according to the manufacturer's instructions. Nuclei that stained brown were scored as positive for apoptosis and those that stained blue were scored as negative. At least sixteen 400X microscopic fields were scored per tumor. Data are presented as the mean ± S. E number of apoptotic cells counted in three separate tumors from each group. Pictures of tumor tissue were taken at 1000X magnification.

[2] = system: 66 cl.4-GFP cells; assay: Visible lung metastases of 66 cl.4-GFP tumors in Balb/c mice; type: in vivo; settings: daily aerosol for 17 days; counted visually at sacrifice
Description: (§1) Metastastic lesions in the five lung lobes were counted visually at time of sacrifice. Fluorescent green micro-metastatic cancer cell colonies in the left lung lobe and lymph nodes were counted using a Nikon fluorescence microscope (TE-200) with a 20 x objective (200 x magnification) and Image-Pro Plus (version 4.1; Media Cybernetics, Silver Spring, MD) software associated with the microscope. Fluorescent lesions were separated into three size grouping: <5 µm , 5-10 µm and >10 µm.

[3] = system: MDA-MB-435 GFP FL cells; assay: Tumor growth of MDA-MB-435 GFP FL breast cancer cells in nude mice; type: in vivo, Nu/Nu athymic nude mice; settings: liposome gavage, 8 mg compound per day, 2 times per day; day 27
Procedure: Animals were given a total of 8 mg compound per day. […] Alpha-TEA liposome gavage reduced tumor growth by 68, 75, 78, 79 and 79% on days 27, 29, 31, 33, and 35, respectively (Fig. 15).
Animals were gavaged 3ppm methylselenocysteine (MSC) in water, α-TEA in liposome via aerosol, or gavaged 10 mg/kg b.w. trans-resveratrol (t-RES) in first 1:1, EtOH: physiological saline, and starting at day 24, 6.5% EtOH and 93.5% Neobee oil. A combination group was treated with each of the above three compounds, and a control group was treated with aerosolized liposome, 100 µl water, and 50 µl of the t-Res solvent. Animals were treated seven days a week, for 35+ days.

[4] = system: 66 cl.4-GFP cells; assay: Colony-forming assay; type: cell-based, mouse; settings: 10 days
Procedure: 66 cl.4-GFP cells were seeded at 600 cells per 35 X 1 0 mm tissue culture plate (Nunclon, Rochester, NY) and allowed to adhere over night at 37° C. […] Treatments were left on the cells for 10 days without change of media. After 10 days, media were removed and plates were washed with PBS three times. Cells were stained for 30 min with 1% methylene blue in PBS and colonies > 0.5 mm manually counted.

[5] = system: cp-70 human ovarian cancer cells; assay: Apoptosis of cp-70 ovarian cancer cells in culture; type: cell-based; settings: treated in culture with α-TEA
[6] = Body weight and long term safety of α-TEA treated mice; type: in vivo, Balb/c mice
Procedure: 50 mice were assigned (10 per group) to aerosol treatment, aerosol control, oral treatment, oral control, or to the no treatment group so that the average tumor volume for all groups were closely matched. […] Tumors were measured using calipers every other day, and volumes were calculated using the formula: volume (mm^3) = [width (mm)^2 X length (mm)] /2. Body weights were determined weekly.
Balb/c mice, 10/group (4 groups, 40 mice total) are inoculated with 200,000 66 cl.4 GFP cells as described on day 0. Nine days after tumor inoculation, treatments groups are initiated: Aerosol Treatment (TX) = aerosol delivery of α-TEA liposome (5 mg/mouse)/daily through day 23. Aerosol Control = Aerosol delivery of liposome composition only daily through day 23. Gavage treatment = gavage administration of α-TEA at 5 mg/mouse in ethanol/peanut oil daily through day 23. Gavage control = gavage administration of ethanol/peanut oil only through day 23. Mice were weighed at the initiation of treatment (day 9) and thereafter on days 13, 16, 20, and 23 (Fig. 6). Data are presented as the mean +/- standard deviation.

[7] = system: 66 cl.4-GFP cells; assay: Fluorescent lymph node micrometastases of 66 cl.4-GFP tumors in Balb/c mice; type: in vivo
Description: as §1
At sacrifice, the left lung lobe of each mouse of flash frozen and saves for detection of GFP expressing micrometatstic lesions via fluorescent microscopy.

[8] = Serum and tissue levels of α-TEA after liposomal aerosol treatment (HPLC); type: in vivo, balb/c mice; settings: aerosol 5 mg/mouse over 30 minutes
Procedure: Tumors were removed during necropsy and half of each tumor was quick frozen in liquid nitrogen then stored at -70°C until HPLC analyses were performed. Tumors were processed for HPLC analyses by homogenization and hexane extraction of lipids. Briefly, weighed tumors were placed in 5 ml disposable conical-bottom tubes (Sarstedt, Newton, NC) along with 5-7 Kimble solid glass beads (4mm), 1 ml 1% SDS in water, 1-2 ml 100% ethanol and 1 ml hexane. Samples were then mixed using a Crescent Wig-L-Bug (model 3110B Densply International, Elgin, IL) twice for 1 min each. Samples were then centrifuged for 5 min at 1,000 rpm, and the organic layer collected, the aqueous layer was mixed with hexane again, vortexed, centrifuged, and processed twice more before the organic layer was dried down under nitrogen. Samples were run immediately. Reverse phase HPLC analyses with fluorometric detection of the tocopherol ether analog were conducted as described by Tirmenstein, M.A., et al. (23).
Eight mice are treated via pulmonary aerosol delivery with 40mg of α-TEA (5 mg/mouse) in 6 ml liposomes. The mice inhaled the aerosol over a period of 30 minutes until delivery was complete. Mice are sacrificed 0, 2, 6, or 24 hours after the treatment ended. Serum and tissue levels of α-TEA are determined by HPLC analyses (Fig. 7).

[9] = system: 66 cl.4-GFP cells; assay: Apoptosis by morphological evaluation of DAPI-stained nuclei; type: cell-based, mouse; settings: for apoptosis: three days

Cc1c(C)c2c(c(C)c1OCC(=O)O)CC[C@@](C)(CCC[C@H](C)CCC[C@H](C)CCCC(C)C)O2 [α-TEA, 2,5,7,8-tetramethyl-(2R-(4R,8R,12-trimethyltridecyl)chroman-6-yloxy) acetic acid]
apoptotic cells/field (mean ± S. E.) ([1]; liposomal α-TEA/aerosol treatment, three tumors): 2.04±0.23 apoptotic cells/field | mean apoptotic values (TUNEL) increased ([1]; transplantable syngeneic mouse mammary cancer model, in comparison to controls): 30% | No. Visible Lung Tumor Foci/Animal [2]: No visible tumors were seen | reduced tumor growth [3]: 68% | colonies (average ± S. D.) ([4]; 1.25 µg/ml): 98 ± 20 colonies | colonies (average ± S. D.) ([4]; 2.5 µg/ml): 21 ± 6 colonies | colonies ([4]; 5 µg/ml): No colonies formed | colonies ([4]; 10 µg/ml): No colonies formed | inhibition at 1.25 µg/mL ([4]; Mus musculus, 240 h, 1.25 µg/ml, compared to EtOH control, read-out: decreased colony formation): 30% | inhibition at 2.5 µg/mL ([4]; Mus musculus, 240 h, 2.5 µg/ml, compared to EtOH control, read-out: decreased colony formation): 85% | inhibition at 5 µg/mL ([4]; Mus musculus, 240 h, 5 µg/ml, compared to EtOH control, read-out: decreased colony formation): 100% | apoptosis [5]: undergo apoptosis | long term adverse effects ([6]; non-tumor bearing mice treated by aerosol or gavage for 17 days, kept eleven months): did not show any adverse effects | body weight ([6]; tumor bearing mice, α-TEA liposome aerosol or gavage in ethanol/peanut oil, 5 mg/mouse daily, versus controls): no significant weight differences; also recorded: No differences in mean body weights | Inhibition (%) Metastases Lymphnode ([7]; Aerosol, in nebulizer per mouse: α-TEA 5 mg/d, 9NC 2 µg/d, combination 5 mg+2µg/d): 94% | Inhibition (%) Metastases Lymphnode ([7]; Liposomal, Aerosol, 5 mg/d): 94% | Inhibition (%) Metastases Lymphnode ([7]; Liposomal, Gavage, 3 mg/2Xd): 56% | average micrometastatic lesions in lymph nodes ([7]; liposome via gavage, 6 mg compound per day, 21 days): 3.1 ±0.8 | serum and tissue levels of α-TEA ([8]; 0 hours after treatment ended): found only in the stomach tissue | serum and tissue levels of α-TEA ([8]; 2 hours after treatment ended): present in the serum and stomach | serum and tissue levels of α-TEA ([8]; 6 hours after treatment ended): present in the liver and stomach | serum and tissue levels of α-TEA ([8]; 24 hours after treatment ended): present in the liver and stomach | apoptosis ([9]; 2.5 µg/ml): 5% | apoptosis ([9]; 5 µg/ml): 6% | apoptosis (time course) ([9]; 10 µg/ml, 2 days): 20% | apoptosis (time course) ([9]; 10 µg/ml, 3 days): 35% | apoptosis (time course) ([9]; 10 µg/ml, 4 days): 47% | apoptosis (time course) ([9]; 10 µg/ml, 5 days): 58% | apoptosis ([9]; 10 µg/ml): 34% | apoptosis ([9]; 20 µg/ml): 50%
